ChEMBL document CHEMBL3627628, “New macrocyclic analogs of the natural histone deacetylase inhibitor FK228; design, synthesis and preliminary biological evaluation” (Bioorg Med Chem, 2015)
pIC50: −log10 of the molar value. Activity calls are given as the source filed them. No cut-off for these calls is given here.

Assays:
IGROV-1 = test: cells; conditions: Homo sapiens, IGROV-1, 72 h
cells = conditions: Homo sapiens, IGROV-1, 72 h
Histone deacetylase 1 = Histone deacetylase 1 (Homo sapiens, UniProt Q13547); test: Inhibition of HDAC1 (unknown origin) incubated for 1 hr by fluor de lys substrate based fluorescence method
[1] = molecular target: T1, Protein deacetylase HDAC6 (Homo sapiens, UniProt Q9UBN7); test: Inhibition of HDAC6 (unknown origin) incubated for 1 hr by fluor de lys substrate based fluorescence method
T1 sequence (Q9UBN7 whole entry): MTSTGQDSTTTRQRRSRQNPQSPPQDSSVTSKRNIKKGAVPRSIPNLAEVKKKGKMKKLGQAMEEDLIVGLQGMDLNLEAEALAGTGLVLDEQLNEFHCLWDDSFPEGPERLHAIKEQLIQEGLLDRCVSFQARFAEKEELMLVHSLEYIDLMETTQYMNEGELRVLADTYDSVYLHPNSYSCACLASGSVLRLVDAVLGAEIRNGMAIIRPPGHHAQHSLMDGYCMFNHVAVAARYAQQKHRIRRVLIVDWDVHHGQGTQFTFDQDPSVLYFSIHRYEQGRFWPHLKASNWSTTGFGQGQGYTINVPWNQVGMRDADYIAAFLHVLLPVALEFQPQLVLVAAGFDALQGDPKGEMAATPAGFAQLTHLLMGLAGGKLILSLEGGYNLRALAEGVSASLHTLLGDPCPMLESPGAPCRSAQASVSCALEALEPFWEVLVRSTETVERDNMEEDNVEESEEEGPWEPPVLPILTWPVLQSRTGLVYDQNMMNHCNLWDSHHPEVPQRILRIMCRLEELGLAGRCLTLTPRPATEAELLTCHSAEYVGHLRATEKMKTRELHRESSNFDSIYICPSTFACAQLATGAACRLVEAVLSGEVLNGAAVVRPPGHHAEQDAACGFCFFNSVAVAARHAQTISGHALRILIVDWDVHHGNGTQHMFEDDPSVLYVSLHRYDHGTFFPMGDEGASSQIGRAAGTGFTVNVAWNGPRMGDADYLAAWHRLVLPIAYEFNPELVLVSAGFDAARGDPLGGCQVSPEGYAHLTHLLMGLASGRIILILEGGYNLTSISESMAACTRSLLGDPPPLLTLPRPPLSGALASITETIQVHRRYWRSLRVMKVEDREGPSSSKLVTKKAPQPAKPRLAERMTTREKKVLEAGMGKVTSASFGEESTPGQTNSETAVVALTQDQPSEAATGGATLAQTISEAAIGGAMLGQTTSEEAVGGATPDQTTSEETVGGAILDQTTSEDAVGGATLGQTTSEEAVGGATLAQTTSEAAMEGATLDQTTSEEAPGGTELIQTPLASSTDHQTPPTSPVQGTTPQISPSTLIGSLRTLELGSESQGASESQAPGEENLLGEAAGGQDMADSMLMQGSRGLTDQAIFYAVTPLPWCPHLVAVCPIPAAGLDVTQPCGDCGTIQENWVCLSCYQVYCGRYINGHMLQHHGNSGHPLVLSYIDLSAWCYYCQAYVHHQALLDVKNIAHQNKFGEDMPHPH

Histone deacetylase 8 = molecular target: T2, Histone deacetylase 8 (Homo sapiens, UniProt Q9BY41); test: Inhibition of HDAC8 (unknown origin) incubated for 1 hr by fluor de lys substrate based fluorescence method
T2 sequence (Q9BY41 whole entry): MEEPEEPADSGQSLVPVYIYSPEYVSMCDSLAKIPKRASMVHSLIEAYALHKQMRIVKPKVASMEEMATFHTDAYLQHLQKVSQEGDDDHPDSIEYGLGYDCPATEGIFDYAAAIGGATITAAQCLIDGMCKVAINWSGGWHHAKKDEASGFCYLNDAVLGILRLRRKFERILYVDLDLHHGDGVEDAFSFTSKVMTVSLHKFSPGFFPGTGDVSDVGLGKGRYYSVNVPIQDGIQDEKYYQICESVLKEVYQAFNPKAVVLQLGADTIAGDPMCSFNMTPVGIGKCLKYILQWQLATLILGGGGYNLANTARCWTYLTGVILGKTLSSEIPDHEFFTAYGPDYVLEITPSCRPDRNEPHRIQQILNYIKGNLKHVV

HCT-116 = test: Antitumor activity against human HCT116 cells xenografted in Swiss mouse assessed as tumor growth inhibition at 10 mg/kg, ip dosed starting day 1 post tumor implantation and repeated every 7 days for 4 times; format: functional, organism-based
Mus musculus = test: Toxicity in human HCT116 cells xenografted Swiss mouse at 10 mg/kg, ip dosed starting day 1 post tumor implantation and repeated every 7 days for 4 times; format: organism-based, HCT-116; conditions: in vivo, 168 h

Sequence of Histone deacetylase 1 (Q13547 whole entry): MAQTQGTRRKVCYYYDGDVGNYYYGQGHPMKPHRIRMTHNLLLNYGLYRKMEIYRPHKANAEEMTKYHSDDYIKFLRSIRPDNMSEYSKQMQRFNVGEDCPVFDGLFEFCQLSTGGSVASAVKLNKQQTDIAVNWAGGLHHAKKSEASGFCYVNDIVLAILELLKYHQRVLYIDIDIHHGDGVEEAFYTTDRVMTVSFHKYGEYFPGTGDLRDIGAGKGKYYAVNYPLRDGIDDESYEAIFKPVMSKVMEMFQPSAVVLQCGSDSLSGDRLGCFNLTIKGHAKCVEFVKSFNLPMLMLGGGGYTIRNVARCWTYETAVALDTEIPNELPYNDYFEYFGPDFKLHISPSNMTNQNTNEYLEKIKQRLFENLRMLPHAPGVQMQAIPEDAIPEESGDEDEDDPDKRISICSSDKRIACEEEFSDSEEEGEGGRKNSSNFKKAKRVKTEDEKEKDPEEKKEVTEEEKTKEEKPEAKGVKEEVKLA

SMILES	pIC50 (IGROV-1)	pIC50 (cells)	pIC50 (Histone deacetylase 1)	pIC50 [1]	pIC50 (Histone deacetylase 8)	TGI (HCT-116)	Activity (Mus musculus)
CC(C)[C@H]1NC(=O)C[C@H]2/C=C/CCSSC[C@@H](NC1=O)C(=O)NCc1ccc(Cl)cc1CC(=O)O2	5.46	6.33					
CCCCCCCCSSCC/C=C/[C@@H]1CC(=O)N[C@H](C(C)C)C(=O)N[C@H](C)C(=O)N[C@H](C(C)C)C(=O)NCC(=O)O1	6.15	7.52	6.09	5.05	5.10		
CC(C)[C@H]1NC(=O)C[C@H]2/C=C/CCSSC[C@@H](NC1=O)C(=O)Nc1cccc(c1)CC(=O)O2	< 5.00	< 5.00					
CC(=O)SCC/C=C/[C@@H]1CC(=O)N[C@H](C(C)C)C(=O)N[C@H](Cc2cn(C)cn2)C(=O)N[C@H](C(C)C)c2cn(nn2)CC(=O)O1	4.97	5.82	5.98	5.00	5.79		
CC[C@H]1NC(=O)[C@@H](C(C)C)NC(=O)C[C@@H](/C=C/CCSC(C)=O)OC(=O)CNC(=O)[C@@H](C(C)C)NC1=O	5.22	6.57					
CC(C)[C@H]1NC(=O)C[C@H]2/C=C/CCSSC[C@@H](NC1=O)C(=O)NCc1ccccc1CC(=O)O2	5.60	6.40					
CC(C)[C@H]1NC(=O)C[C@H]2/C=C/CCSSC[C@@H](NC1=O)C(=O)NC1CCC(CC1)C(=O)O2	5.15	5.82					
CC(C)[C@H]1NC(=O)C[C@H]2/C=C/CCSSC[C@@H](NC1=O)C(=O)N(C)Cc1ccccc1CC(=O)O2	< 5.00	< 5.00					
CC(=O)SCC/C=C/[C@@H]1CC(=O)N[C@H](C(C)C)C(=O)N[C@H](Cc2ccccc2)C(=O)N[C@H](C(C)C)c2cn(nn2)CC(=O)O1	5.51	6.72	5.98	5.06	5.74		
CCCCCCCC(=O)SCC/C=C/[C@@H]1CC(=O)N[C@H](C(C)C)C(=O)N[C@H](C)C(=O)N[C@H](C(C)C)C(=O)NCC(=O)O1	6.64	8.05	5.90	4.74	4.84		
CC(C)[C@@H]1NC(=O)CC(=O)O[C@@H]2/C=C/CCSSC[C@@H](NC(=O)[C@@H](C(C)C)NC(=O)C2)C(=O)N1	5.48	4.96					
C=C(C)[C@H]1NC(=O)[C@H]2CSSCC/C=C/[C@H](CC(=O)N[C@H](C)C(=O)N2)OC(=O)C[C@@H]1O [SPIRUCHOSTATIN A]	7.60	7.82					
CC(C)[C@H]1NC(=O)C[C@H]2/C=C/CCSSC[C@@H](NC1=O)C(=O)N[C@H](C(C)C)c1cn(nn1)CC(=O)O2	6.40	6.96					
CC(C)[C@H]1NC(=O)C[C@H]2/C=C/CCSSC[C@@H](NC1=O)C(=O)NCc1cc(OC(F)(F)F)ccc1CC(=O)O2	6.29	6.74					
CC(C)[C@H]1NC(=O)C[C@H]2/C=C/CCSSC[C@@H](NC1=O)C(=O)NCc1cc(-c3ccccc3)ccc1CC(=O)O2	6.22	6.70				Active	Non-toxic
CC(=O)SCC/C=C/[C@@H]1CC(=O)N[C@H](C(C)C)C(=O)N[C@H](Cc2ccc(O)cc2)C(=O)N[C@H](C(C)C)c2cn(nn2)CC(=O)O1	< 5.00	5.66					
CC(C)[C@H]1NC(=O)C[C@H]2/C=C/CCSSC[C@@H](NC1=O)C(=O)Nc1ccccc1C(=O)NCC(=O)O2	< 5.00	< 5.00					
CC(C)[C@H]1NC(=O)C[C@H]2/C=C/CCSSC[C@@H](NC1=O)C(=O)NCc1[nH]c3ccccc3c1CC(=O)O2	5.55	6.11					
CC(C)[C@H]1NC(=O)C[C@H]2/C=C/CCSSC[C@@H](NC1=O)C(=O)NCc1cc(Br)ccc1CC(=O)O2	5.70	5.60					
CC(C)[C@H]1NC(=O)C[C@H]2/C=C/CCSSC[C@@H](NC1=O)C(=O)NCc1ccc(Br)cc1CC(=O)O2	5.56	6.42					
CC(C)[C@H]1NC(=O)C[C@H]2/C=C/CCSSC[C@@H](NC1=O)C(=O)N1CCC(CC1)CC(=O)O2	< 5.00	< 5.00					
CC(=O)SCC/C=C/[C@@H]1CC(=O)N[C@H](Cc2ccccc2)C(=O)N[C@H](C)C(=O)N[C@H](C(C)C)c2cn(nn2)CC(=O)O1	6.01	6.92					
